One data set deals with S100A8 promoter. Description: Luciferase reporter with S100A8 promoter in microglia. It is filed as cell-based, mouse. The source says:
Construction of the S100A8 promoter into the luciferase plasmid vector. To determine the activity of IAA on the promoter of S100A8, a sequence containing 1,037 bp of S100A8 promoter (GENBANK® Accession #: L76381) upstream −1,037 to −1 from transcription start site (TSS) was constructed into the luciferase C1 vector (Addgene, #163523). A DNA fragment was generated by PCR amplification with genomic DNA extracted from mouse liver tissue using DNeasy Blood & Tissue Kits (Qiagen, #69504). PCR was conducted using Q5 High-Fidelity PCR kit (New England Biolabs® Inc.) with the primers 51008A-prom, pLuc163523 and genomic DNA, and luciferase C1 plasmid as the template, respectively. The two PCR products purified using the Gel extraction kit (Qiagen) were seamlessly assembled into the pLuc-S100p using the NEBuilder HiFi DNA Assembly Cloning Kit (New England Biolabs® Inc.). The plasmid pLuc-S100p was transformed into DH5a and selected using kanamycin resistance. The DNA sequence was confirmed by DNA sequencing.
Site-directed mutagenesis within the S100A8 promoter. A mutant of IAA with the potential binding site on the S100A8 promoter was generated with the oligonucleotide primer S1008A-prom-Mut, which was designed to specifically disrupt the putative S100A8 binding site at its promoter (FIG. 3C). Q5® Site-Directed Mutagenesis Kit (New England Biolabs, MA, USA) was used in conjunction with specific primers (Table 3) to introduce S100A8 promoter mutations in the pLuc-S100p construct according to the manufacturer's instructions. After mutant strand synthesis and ligation, resultant plasmids were introduced into E. coli and transformants were selected using kanamycin resistance. The DNA sequence of mutants was confirmed by DNA sequencing.

A short description of data set [1]: T-maze spontaneous alternation (TMSA) test. The following applies: IAA to young mice. In kind it is in vivo, mouse. The method, then: T-maze test. To evaluate the cognitive impairment without requirement of full motor function, modified T-Maze test (Deacon and Rawlins, 2006) was carried out. Mice were gently handled, habituated to the T-Maze apparatus, and subjected to food deprivation. On the forced alternation sample trial (T1), the animals were exposed to the T-maze with one of the arms opened and rewarded with pellet at end of the arm. The opposite arm was blocked by a guillotine door. The mouse was allowed to explore the open arm and consume the reward. Ten consecutive trials were performed, then the mouse was removed. After 30 min, retrieval testing (T2) was performed. The blocked arm was opened and the mouse was placed in the same start position. […] If the mouse entered the same arm as in T1, the mouse was confined for 10 seconds and this response was marked as an “Error”. Each mouse was subjected to 10 consecutive runs. Forced Alternation [%] was defined as the percent of mice first entering the novel arm during T2. […] The three- or four-day intersession interval is used to assess recognition memory performances.

Data set [2] can be described thus: Surface plasmon resonance (SPR) of biotin-labeled oligos with IAA. In kind it is binding. The following applies: biotin labeled oligo on streptavidin sensor chip. On the procedure:
Surface plasmon resonance (SPR). To identify the binding activity of the metabolite IAA and S100A8 promoter sequence, SPR experiments were conducted on an OPENSPR™ (Nicoya, Lifesciences, CA). Experiments were performed on a streptavidin sensor (Nicoya, Lifesciences). SPR was run at a flow rate of 20 μl/min using HBS running buffer (20 mM HEPES, 150 mM NaCl, pH 7.4). First, the streptavidin sensor chip was cleaned with octyl β-D-glucopyranoside (40 mM) and CHAPS (20 mM). 200 μl of biotin-conjugated oligos (1 μg/ml, Table 5) were injected on the sensor chip for 10 minutes until a stable resonance was obtained. After immobilization of bio-oligo, the surface was blocked with BSA (3%) in running buffer. After a stable signal was obtained, IAA (10 nM) was run over the immobilized bio-oligo until a stable resonance was obtained. A negative control test was also performed by injecting IAA onto a blank sensor chip to check for non-specific binding. The sensograms were analyzed using TraceDrawer kinetic analysis software.

Data set [3] is described as follows: Single-strand gel shift (SSGS) assay. It is filed as binding. The note with it: oligos (2 μM) incubated with IAA (10 μM), 15% PAGE. The method, then: Single-strand gel shift (SSGS) assay. To identify the metabolite binding site of S100A8, we synthesized a series of oligonucleotides (oligos) (Eurofins Genomics LLC, KY) specific to the response putative IAA binding site at the promoter region of S100A8. The oligos ([…]) were incubated with […] of IAA at 37° C. for 30 minutes following electrophoresis on a 15% native PAGE without SDS in 0.5×TBE buffer. The oligos were stained with ethidium bromide ([…]) and visualized under ultraviolet (UV) light.
Given induction of bacterial metabolite IAA causes the degeneration of microglia by elevation of S100A8 at both the transcription and protein level, we hypothesized that IAA might directly target the promoter of S100A8 and regulate the expression of S100A8. Studying the interaction of metabolites, particularly small molecules, with nucleic acid is challenging due to a lack of appropriate tags for the metabolites. Because of this challenge, we developed a strategy raising the possibility to investigate the interaction of small molecules and nucleic acid.
To test our hypothesis, we first synthesized short single-DNA strains (around 60 mer length each) whose sequences spanned the promoter of S100A8 (FIG. 13A and Table 5). The site and sequence of the promoter and transcription start site (TSS) were determined according to the entire mRNA (Accession #NC_000069.7 (90,576,378 . . . 90,577,341)) and genomic sequence (Accession #L76381) from the NCBI nucleic acid database (FIG. 13A). These DNA oligos (2 μM) were incubated with IAA (10 μM) following native PAGE analysis (FIG. 4A). […] To define the accurate binding site of IAA, we synthesized 10 mer length DNA oligos covering the sequence of S100p1 (Table 5). Unfortunately, the 10 mer length oligo lost the conformational mobility shift in PAGE (FIG. 13C). We then tested the mobility shift with 20 mer oligos. […]

Experimental findings from patent publication US20250136997A1, “COMPOSITIONS FOR SEQUESTERING ISOAMYL AMINE AND METHODS OF USE THEREFOR” (University of Louisville Research Foundation, Inc., priority 2023, published 2025) are described below.

Consider `CC(C)CCN` [IAA, isoamylamine], for which the “effect of IAA on the S100A8 transcription (luciferase)” value with S100A8 promoter (p53 KO microglia with additional p53) is reported as “recovered”. In addition, in the data set with S100A8 promoter (p53 deficiency (p53 KO microglia)), the “IAA-induced S100A8 activation (luciferase)” value was “attenuated”. Besides, the “luciferase activity, S100A8 promoter sequence” value in the data set with S100A8 promoter (wild-type promoter, microglia, 12 h after IAA) was “activated”. Further, in data set [1] (phage to aged mice), the “deficit of spatial learning in the TMSA (percentage of correct choices)” value was “induced the deficit”. The “percentage of alternating choices (exploring new arm), TMSA” value in data set [1] (phage^TSD-27 to aged mice) is “reduced young mice exploring the new path”.

Turning to “S100p1-G: CTGTGGGCAG CTGGCCAAGC (SEQ ID NO: 8), S100A8 promoter −57 . . . −38 (DNA CTGTGGGCAGCTGGCCAAGC; chemistry not given here)”, the “interaction with IAA (SPR)” value in data set [2] was “targeted by IAA”. The “mobility shift on native PAGE after incubation with IAA” value in data set [3] is “displayed a shift”.
